According to patent US20160158189A1, “SENSITIZATION OF CANCER CELLS TO APOPTOSIS INDUCTION BY FLAVAGLINES AND 5-HYDROXY-FLAVONES” (DEUTSCHES KREBSFORSCHUNGSZENTRUM, priority 2013, published 2016):

What was measured:
CEM cells = assay: Apoptotic cell death by DNA fragmentation, CEM; format: cell-based, human; details: for effect on ABT-263-induced apoptosis: ABT-263 plus 10 μM flavone, 30 h
Method: (§1) The human malignant cell lines used in this study are the T cell leukemic cell lines CEM, Molt-4 and Jurkat (J16), the HL cell line KM-H2, the cervix adenocarcinoma cell line HeLa, the melanoma cell line A375, the hepatocellular carcinoma cell line HepG2, the pancreatic carcinoma cell line MiaPaca, the breast cancer cell line MCF-7, the prostatic cancer cell line PC3 and the colon carcinoma cell line HCT116. All cells were cultured in RPMI 1640 or DMEM medium (GIBCO laboratories, Grand Island, USA), supplemented with 10% FCS, 100 Units/ml penicillin (GIBCO), 100 μg/m1 streptomycin (GIBCO) and 2 mM L-glutamine (GIBCO) at 37° C. and 5%. Wogonin (BIOTREND Chemicals AG, Wangen, Switzerland), apigenin, chrysin, luteolin and baicalein (Sigma, St. Louis, USA) were solved in dimethyl sulfoxide (DMSO; Roth, Karlsruhe, Germany) at a stock concentration of 50 mM. Cells were treated with different concentrations of different flavones or ABT-263 (Selleck Chemicals, Houston, USA) for 24 to 48 h. Apoptotic cell death was examined by analysis of DNA fragmentation as previously described 23 (Fas et al.,2006, Blood 108: 3700-6). Results are presented as % specific DNA fragmentation using the formula: (percentage of experimental apoptosis-percentage of spontaneous apoptosis)/(100-percentage of spontaneous apoptosis)×100.

Mcl-1 = assay: Western blot analysis of Mcl-1 expression; format: cell-based, human; details: for Mcl-1 protein expression: 50 μM flavone
Text: For each sample, 1×10^7 cells were lysed as previously described. 23 Equal amounts of protein were separated on 5-13% SDS-PAGE depending on the molecular sizes of the proteins and blotted onto a nitrocellulose membrane (Amersham Biosciences, Little Chalfon, UK) as previously described. 23 The following antibodies were used: Bad, Bax, Bcl-xL, Bcl-w, XIAP from Cell Signaling Technology, Danvers, USA; Bcl-2 (sc-509) and Mcl-1 (sc-819) from Santa Cruz Biotechnology, Heidelberg, Germany; Tubulin and actin from Sigma, Saint Louis, USA.

Molt-4 cells = assay: Apoptotic cell death by DNA fragmentation, Molt-4; format: cell-based, human
Method: as §1

Jurkat (J16) cells = assay: Apoptotic cell death by DNA fragmentation, Jurkat; format: cell-based, human
Method: as §1

Human platelets = assay: Platelet apoptotic cell death by annexin V/FITC staining; format: cell-based; details: ABT-263 with wogonin, 1 h
Method: (§2) Normal T cells were isolated from peripheral blood of healthy donors and activated to proliferate as described in the Materials and Methods. The proliferating T cells were treated with different concentrations of ABT-263 in the absence or presence of wogonin as indicated. Apoptotic cell death was determined by DNA fragmentation. Results are presented as pooled data from four independent donors. (B) Proliferating normal T cells express higher levels of Mcl-1 and Bcl-2 than leukemic Jurkat and Molt-4 T cells. Total cell lysates of activated T cells from three healthy donors were compared with leukemic cells for the expression levels of Mcl-1, Bcl-2, Bcl-xL and Bcl-w. CDK6 is known to be over-expressed in many tumor cells and was used as a marker for malignant cells. Representative blots from two independent experiments are shown. […] Human platelets in 10% FCS were treated with different concentrations of ABT-263 in the absence or presence of wogonin as indicated. After 1 h treatment, apoptotic cell death was determine by staining with annexin V/FITC. Results are average of two independent assays.
Human peripheral blood T cells were prepared as described previously 23 and were more than 90% CD3 positive. For generation of proliferating T cells, freshly isolated T cells were cultured at 2×10^6 cells/ml and were activated with 1 mg/ml PHA overnight. […]

[1] = test system: ABT-263-resistant Jurkat (Jurkat-R); assay: Apoptotic cell death by DNA fragmentation, ABT-263-resistant Jurkat; format: cell-based, human; details: Jurkat-R; ABT-263 with wogonin
Method: (§3) Wogonin (BIOTREND Chemicals AG, Wangen, Switzerland), apigenin, chrysin, luteolin and baicalein (Sigma, St. Louis, USA) were solved in dimethyl sulfoxide (DMSO; Roth, Karlsruhe, Germany) at a stock concentration of 50 mM. Cells were treated with different concentrations of different flavones or ABT-263 (Selleck Chemicals, Houston, USA) for 24 to 48 h. Apoptotic cell death was examined by analysis of DNA fragmentation as previously described 23 (Fas et al.,2006, Blood 108: 3700-6). Results are presented as % specific DNA fragmentation using the formula: (percentage of experimental apoptosis-percentage of spontaneous apoptosis)/(100-percentage of spontaneous apoptosis)×100.

[2] = test system: ABT-263-resistant CEM (CEM-R); assay: Apoptotic cell death by DNA fragmentation, ABT-263-resistant CEM; format: cell-based, human; details: CEM-R; ABT-263 with wogonin
Method: as §3

[3] = test system: proliferating normal peripheral blood T cells; assay: Apoptotic cell death by DNA fragmentation, proliferating normal T cells; format: cell-based; details: ABT-263 with wogonin, four healthy donors
Method: as §2
Human peripheral blood T cells were prepared as described previously 23 and were more than 90% CD3 positive. For generation of proliferating T cells, freshly isolated T cells were cultured at 2×10^6 cells/ml and were activated with […] PHA overnight. Activated T cells were then washed three times and cultured for additional 5 days in the presence of 25 U/ml IL-2. Platelets were prepared as described in Vogler et al., 2011, Blood 117: 7145-54.
Wogonin (BIOTREND Chemicals AG, Wangen, Switzerland), apigenin, chrysin, luteolin and baicalein (Sigma, St. Louis, USA) were solved in dimethyl sulfoxide (DMSO; Roth, Karlsruhe, Germany) at a stock concentration of 50 mM. Cells were treated with different concentrations of different flavones or ABT-263 (Selleck Chemicals, Houston, USA) for 24 to 48 h. Apoptotic cell death was examined by analysis of DNA fragmentation as previously described 23 (Fas et al.,2006, Blood 108: 3700-6). […]

[4] = test system: colon carcinoma cell line HCT116; assay: Apoptotic cell death by DNA fragmentation, HCT116; format: cell-based, human; details: ABT-263 plus 50 μM wogonin, 48 h
Method: as §1

[5] = test system: prostatic cancer cell line PC3; assay: Apoptotic cell death by DNA fragmentation, PC3; format: cell-based, human; details: ABT-263 plus 50 μM wogonin, 48 h
Method: as §1

[6] = test system: hepatocellular carcinoma cell line HepG2; assay: Apoptotic cell death by DNA fragmentation, HepG2; format: cell-based, human; details: HepG2; ABT-263 plus 50 μM wogonin, 48 h
Method: as §1

CEM tumors = assay: CEM xenograft in immunodeficient mice; format: in vivo; details: Rag2-/-/Il2rg-/- mice, s.c. CEM; ABT-263 50 mg/kg p.o. and/or wogonin 50 mg/kg i.p.
Method: Immunodeficient mice (Rag2−/−/II2rg−/−) were implanted subcutaneously in the dorsal flank region with CEM (5×10^7 cells). After the tumors reached to approximate 35 mm3, tumor size matched mice were treated with ABT-263 (50 mg/kg, once in each third or fourth day) in the presence or absence of 50 mg/kg wogonin. ABT-263 was formulated according to the protocol previously described 9 and administered p.o. Wogonin dissolved in DMSO was diluted in sunflower oil and administered i.p. For combination studies, ABT-263 was given 2 h before wogonin. The control group was treated in an analogous manner with the vehicle. The tumor size was measured with a micrometer caliper two to three times weekly and the tumor volume (V) was calculated by the formula V=(width2×length)/2. All protocols using and maintaining animals were approved by the German Animal Protection Authority (Office Regierungsprasidium Karlsruhe) in Karlsruhe.

melanoma cell line A375 = assay: Apoptotic cell death by DNA fragmentation, A375; format: cell-based, human; details: ABT-263 plus 50 μM wogonin, 48 h
Method: as §1

[7] = test system: breast cancer cell line MCF-7; assay: Apoptotic cell death by DNA fragmentation, MCF-7; format: cell-based, human; details: ABT-263 plus 50 μM wogonin, 48 h
Method: as §1

[8] = test system: cervix adenocarcinoma cell line HeLa; assay: Apoptotic cell death by DNA fragmentation, HeLa; format: cell-based, human; details: ABT-263 plus 50 μM wogonin, 48 h
Method: as §1

[9] = ABT-263 plus different concentrations of wogonin, 24 h
[10] = wogonin alone at the concentrations used for combination, 24 h
[11] = Jurkat 16, ABT-199 with wogonin

O=c1cc(-c2ccccc2)oc2cc(O)c(O)c(O)c12 [baicalein]
effect on ABT-263-induced apoptosis (CEM cells): enhance ABT-263-induced apoptosis in CEM cells in a dose-dependent manner | Mcl-1 protein expression (Mcl-1; CEM, 8 h): Down-regulation of Mcl-1 protein expression

CC1(C)CCC(CN2CCN(c3ccc(C(=O)NS(=O)(=O)c4ccc(NCC5CCOCC5)c([N+](=O)[O-])c4)c(Oc4cnc5[nH]ccc5c4)c3)CC2)=C(c2ccc(Cl)cc2)C1 [ABT-199, 4-[4-[[2-(4-chlorophenyl)-4,4-dimethyl-1-cyclohexen-1-yl]methyl]-1-piperazinyl]-N-[[3-nitro-4-[[(tetrahydro-2H-pyran-4-yl)methyl]amino]phenyl]sulfonyl]-2-(1H-pyrrolo[2,3-b]pyridin-5-yloxy)-Benzamide]
EC50 (CEM cells; Homo sapiens, CCRF-CEM, ABT-199 alone, read-out: concentration inducing 50% apoptotic cell death): 5 to 10 µM | EC50 (Molt-4 cells; Homo sapiens, ABT-199 alone, read-out: concentration inducing 50% apoptotic cell death): 5 to 10 µM | EC50 (Jurkat (J16) cells; Homo sapiens, Jurkat 16, ABT-199 alone, read-out: concentration inducing 50% apoptotic cell death): 5 to 10 µM

O=c1cc(-c2ccc(O)c(O)c2)oc2cc(O)cc(O)c12 [luteolin]
effect on ABT-263-induced apoptosis (CEM cells): enhance ABT-263-induced apoptosis in CEM cells in a dose-dependent manner | Mcl-1 protein expression (Mcl-1; CEM, 8 h): Down-regulation of Mcl-1 protein expression

O=c1cc(-c2ccc(O)cc2)oc2cc(O)cc(O)c12 [Apigenin]
effect on ABT-263-induced apoptosis (CEM cells): enhance ABT-263-induced apoptosis in CEM cells in a dose-dependent manner | Mcl-1 protein expression (Mcl-1; CEM, 8 h): Down-regulation of Mcl-1 protein expression

O=c1cc(-c2ccccc2)oc2cc(O)cc(O)c12 [chrysin]
effect on ABT-263-induced apoptosis (CEM cells): enhance ABT-263-induced apoptosis in CEM cells in a dose-dependent manner | Mcl-1 protein expression (Mcl-1; CEM, 8 h): Down-regulation of Mcl-1 protein expression

COc1c(O)cc(O)c2c(=O)cc(-c3ccccc3)oc12 [wogonin, 5,7-dihydroxy-8-methoxy-2-phenyl-4H-chromen-4-one]
effect on toxicity of ABT-263 to platelets (Human platelets): did not enhance the toxicity of ABT-263 | effect on toxicity of ABT-263 to platelets (Human platelets; listed as Wogonin): does not enhance the toxicity of ABT-263 | re-sensitization to ABT-263-induced apoptotic cell death [1]: re-sensitized to ABT-263 treatment | re-sensitization to ABT-263-induced apoptotic cell death [2]: re-sensitized to ABT-263 treatment | reduction of the ABT-199 dose (CEM cells; ABT-199 with wogonin): approx. 5 fold | sensitization to ABT-199-mediated apoptosis (CEM cells; ABT-199 with wogonin): sensitized | effect on killing efficacy of ABT-263 (CEM cells; [9]): enhanced the killing efficacy of ABT-263 in a dose-dependent manner | reduction of ABT-263 dose required for inducing 50-70% cell death (CEM cells; in presence of wogonin): approximately 10 times | cell death by wogonin alone (CEM cells; [10]): only minimal cell death | effect on toxicity of ABT-263 to normal proliferating T cells [3]: did not enhance the toxicity of ABT-263 | effect on toxicity of ABT-263 to normal proliferating T cells ([3]; listed as Wogonin): does not potentiate the toxicity of ABT-263 | effect on ABT-263-mediated apoptotic cell death [4]: dose-dependent increase | effect on ABT-263-mediated apoptotic cell death [5]: dose-dependent increase | reduction of the ABT-199 dose (Molt-4 cells; ABT-199 with wogonin): approx. 5 fold | sensitization to ABT-199-mediated apoptosis (Molt-4 cells; ABT-199 with wogonin): sensitized | effect on killing efficacy of ABT-263 (Molt-4 cells; [9]): enhanced the killing efficacy of ABT-263 in a dose-dependent manner | reduction of ABT-263 dose required for inducing 50-70% cell death (Molt-4 cells; in presence of wogonin): approximately 10 times | cell death by wogonin alone (Molt-4 cells; [10]): only minimal cell death | effect on ABT-263-mediated apoptotic cell death [6]: dose-dependent increase | reduction of the ABT-199 dose (Jurkat (J16) cells; [11]): approx. 5 fold | sensitization to ABT-199-mediated apoptosis (Jurkat (J16) cells; [11]): sensitized | effect on killing efficacy of ABT-263 (Jurkat (J16) cells; Jurkat, ABT-263 plus different concentrations of wogonin, 24 h): enhanced the killing efficacy of ABT-263 in a dose-dependent manner | reduction of ABT-263 dose required for inducing 50-70% cell death (Jurkat (J16) cells; Jurkat, in presence of wogonin): approximately 10 times | cell death by wogonin alone (Jurkat (J16) cells; Jurkat, wogonin alone at the concentrations used for combination, 24 h): only minimal cell death | tumor growth / tumor response (CEM tumors): no significant inhibition of tumor growth | effect on ABT-263-mediated apoptotic cell death (melanoma cell line A375): dose-dependent increase | effect on ABT-263-mediated apoptotic cell death [7]: dose-dependent increase | effect on ABT-263-mediated apoptotic cell death [8]: dose-dependent increase | Mcl-1 expression (Mcl-1; ABT-263-resistant Jurkat and CEM, wogonin): significantly inhibited Mcl-1 expression | Mcl-1 expression (Mcl-1; CEM, Jurkat and Molt-4, 50 μM wogonin, 8 h): down-regulation of Mcl-1 expression | Mcl-1 expression (Mcl-1; CEM, Jurkat and Molt-4, 50 μM wogonin, 8 h, listed as Wogonin): down-regulates Mcl-1 expression | Mcl-1 expression (Mcl-1; all tumor cell lines tested other than MiaPaca, 50 μM wogonin, 8 h): down-regulated
